{"source": "patent US6677302B2", "about": "“Compositions and methods for the treatment of viral disorders” (The Trustees of Boston University, priority 1996, dated 2004)", "key": {"[1]": {"conditions": "European pharmacokinetic studies; 500 mls of a 5% solution; two normal volunteers; cited from earlier work"}, "[2]": {"tested_on": "HLA antigens in K562 cells", "conditions": "one hour of exposure to 1 mM", "protocol": "HLA Induction: Arginine butyrate was tested for its ability to induce expression of HLA antigens in K562 cells, a human erythroleukemia cell line."}, "[3]": {"tested_on": "SY5Y neuroblastoma cell line", "test": "Induction of apoptosis / DNA fragmentation"}, "[4]": {"tested_on": "Human Neuroblastoma Cell Line, SK-N-MC", "test": "Proliferation of neuroblastoma cells, 4 weeks continuous exposure", "format": "cell-based", "conditions": "no treatment 1 × 10^8", "protocol": "Human neuroblastoma cell line SK-N-MC was studied under different conditions. In this case, the cells were grown for 4 weeks with continuous exposure to sodium butyrate or arginine butyrate, and the cell number was quantitated at the end of this time."}, "[5]": {"tested_on": "Colonic Adenocarcinoma (HT 29)", "test": "Differentiation and growth arrest of tumor cell line", "format": "cell-based, human", "protocol": "The effects of arginine butyrate compounds on differentiation of several human tumor cell lines were evaluated by visual inspection and by histochemical and pathological staining:\nInhibition of DNA synthesis (as measured by ^3H-thymidine incorporation) occurred by 6 hours. Expression of the proto-oncogene c-myc was decreased by 2 hours."}, "refractory neoplasms": {"tested_on": "refractory neoplasms", "test": "Tumor response in patients with refractory neoplasms", "format": "in vivo, human", "protocol": "Three patients with refractory neoplasms (breast, melanoma, adenocarcinoma, of unknown primary) have been enrolled and completed 1-2 cycles of arginine butyrate as a dose of 500 mg/kg/day over 6-8 hours for 10 days.\nThree patients (with breast cancer, bowel cancer or Hodgkins disease) have completed two cycles of arginine butyrate at a dose of 750 mg/kg/day for 10 days. […] Otherwise, there was no other objective measures of organ progressed after treatment was topped. […] There was a further resolution of the disease during the second cycle. Disease progression was noted one month after second cycle was completed. At 1000 mg/kg/day, 3 patients have been enrolled on study.\nAn inter-group dose-escalation study is being conducted in patients with refractory malignancies. There are 3 patients per group with the dose levels starting at 500 mg/kg/day, and increasing by 250 mg/kg/day per group, if toxicity permits. Doses are given by 8 hour IV infusion, daily, for 5 days times 2 weeks, with weekends off, for a total of 10 days of treatment per cycle."}, "fetal globin mRNA": {"tested_on": "fetal globin mRNA", "test": "Fetal globin mRNA response in patients", "format": "in vivo, human", "conditions": "β-hemoglobinopathies; IV 500 to 2,000 mg/kg/day, 2-7 weeks", "protocol": "Eleven pediatric and twelve adult patients with β-hemoglobinopathies have been treated with IV arginine butyrate at a starting dose of 500 mg/kg/day for 2-7 weeks. Dose escalation at the rate of 250 mg/kg/day to a maximum of 2,000 mg/kg/day was permitted."}, "K562": {"tested_on": "K562", "test": "DNA fragmentation by flow cytometry", "format": "cell-based, human", "conditions": "alone, FIG. 3", "excerpt": "It has been shown that sodium butyrate can induce apoptosis in human tumors or tumor cell lines (L. A. Noorduyn et al., Histopathology 21:59, 1992)."}, "[6]": {"tested_on": "Fibroblasts (mouse BALB/c-3T3)", "test": "MIC on cell proliferation, 7 days in culture", "format": "cell-based", "protocol": "(§1) The ability of arginine butyrate to induce differentiation has been evaluated and is measured by inhibition of growth, in some of the neoplastic cell types previously reported to be sensitive to (sodium) butyric acid, and found arginine butyrate to be as potent as butyric acid. We have also extended that work to additional cell types and found Arginine Butyrate to induce differentiation in these new cell types. Table 1 lists the cell types tested and the minimum inhibitory concentration (MIC) of sodium butyrate (NaB) and arginine butyrate (ArgB) on these cell lines. The MIC is the lowest dose that prevents all growth over the 7 days that the cells are maintained in culture, that is the minimum dose that prevents an increase in cell number. […] The […] of ArgB and NaB were equivalent on all cell lines tested."}, "[7]": {"tested_on": "Fibroblasts (normal human)", "test": "MIC on cell proliferation, 7 days in culture", "format": "cell-based", "conditions": "lowest dose that prevents all growth over 7 days", "protocol": "as §1"}, "[8]": {"tested_on": "EBV-TK mRNA in Raji (non-producer line)", "test": "EBV-TK mRNA induction in lymphoma cell lines", "format": "cell-based, human", "conditions": "high basal level of TK, 12 hours, 3 mM", "protocol": "(§2) Because of arginine butyrate's ability to induce various genes, its ability to induce EBV-TK mRNA in human lymphoma cell lines was evaluated. FIG. 7 provides bar graphs of the basal levels of TK and the levels following 12 hours of incubation with 3 mM arginine butyrate in 3 lymphoma cell lines: X50-7 a latent large cell lymphoma (B cell); P3RH1 an EBV B-cell producer line derived from Burkitt's lymphoma; and Raji a non-producer line derived from a Burkitt's lymphoma. EBV-TK levels were not increased in the EBV non-producer cell line, Raji, which has a high basal level of TK, but were increased approximately 4 fold in an EBV producer cell line and 10 fold in a non-producer cell line."}, "[9]": {"tested_on": "EBV-TK mRNA in X50-7 (latent large cell lymphoma)", "test": "EBV-TK mRNA induction in lymphoma cell lines", "format": "cell-based, human", "conditions": "non-producer (latent) line X50-7; 12 hours, 3 mM", "protocol": "as §2"}, "[10]": {"tested_on": "EBV-TK mRNA in P3RH1 (EBV B-cell producer line)", "test": "EBV-TK mRNA induction in lymphoma cell lines", "format": "cell-based, human", "conditions": "12 hours, 3 mM", "protocol": "as §2"}, "SKNSH cells": {"tested_on": "SKNSH cells", "test": "Induction of apoptosis", "format": "cell-based, human", "conditions": "FIG. 1b"}}}
{"substance": "arginine butyrate", "values": [{"measurement": "elimination period", "setting": "[1]", "result": 15, "unit": "min"}, {"measurement": "HLA expression increase", "setting": "[2]", "result": "more than 20 fold"}, {"measurement": "apoptosis", "setting": "[3]; FIG. 1c", "result": "induces apoptosis"}, {"measurement": "DNA fragmentation", "setting": "[3]; both 0.5 and 1.0 mM", "result": "significant DNA fragmentation was found"}, {"measurement": "Cell Number", "setting": "[4]; 0.05 mM", "result": "1 × 10^5"}, {"measurement": "Cell Number", "setting": "[4]; 1.0 mM", "result": "<1 × 10 ^3"}, {"measurement": "morphology and differentiation markers", "setting": "[5]", "result": "developed a mature brush border, and increased expression of sucrase/isomaltase"}, {"measurement": "time by which expression of proto-oncogene c-myc was decreased", "setting": "[5]", "result": "≤ 2", "unit": "h"}, {"measurement": "time by which inhibition of DNA synthesis (3H-thymidine incorporation) occurred", "setting": "[5]", "result": "≤ 6", "unit": "h"}, {"measurement": "growth arrest", "setting": "[5]; no further growth out to 25 days", "result": "absolute growth arrest by day 3-4"}, {"measurement": "objective tumor responses", "setting": "refractory neoplasms; 500 mg/kg/day, three patients, 1-2 cycles", "result": "No objective tumor responses were noted"}, {"measurement": "stable disease", "setting": "refractory neoplasms; 750 mg/kg/day, after two cycles", "result": "Two patients had stable disease after two cycles"}, {"measurement": "partial response, reduction in tumor area", "setting": "refractory neoplasms; 750 mg/kg/day, patient with Hodgkin's disease, after first cycle", "result": "> 80", "unit": "%"}, {"measurement": "response as judged by increase in fetal globin mRNA", "setting": "fetal globin mRNA", "result": "most patients showed response"}, {"measurement": "DNA fragmentation and cellular shrinkage", "setting": "K562", "result": "DNA fragmentation and cellular shrinkage"}, {"measurement": "MIC", "setting": "[6]", "result": ">5,000 μM"}, {"measurement": "MIC", "setting": "[7]", "result": ">5,000 μM"}, {"measurement": "EBV-TK levels", "setting": "[8]", "result": "not increased"}, {"measurement": "EBV-TK level increase", "setting": "[9]", "result": "~10", "unit": "fold"}, {"measurement": "EBV-TK level increase", "setting": "[10]", "result": "approximately 4 fold"}, {"measurement": "apoptosis", "setting": "SKNSH cells", "result": "induces apoptosis"}]}
